Patent US20180112193A1, “CSF1 THERAPEUTICS” (University Court Of The University Of Edinburgh, priority 2013, published 2018)

What was measured:
[1] = test system: male C57BI6 mice; experiment: 2/3 partial hepatectomy in mice; type: in vivo, mouse
Experimental: Forty-eight male C57BI6 mice aged 10-12 weeks underwent either 2/3 partial hepatectomy, paracetamol intoxication or chronic liver injury plus 2/3 partial hepatectomy. 2/3 partial hepatectomy was performed by ligating the left lobe and left and right median lobes. Paracetamol intoxication was performed by intraperitoneal administration of 350 mg/kg paracetamol dissolved in phosphate buffered saline (PBS). Chronic liver injury plus 2/3 partial hepatectomy was performed by eight weeks intraperitoneal carbon tetrachloride administration 1 mcl/g twice weekly dissolved in olive oil followed by ⅔ partial hepatectomy as described above. […] Control mice (n=8 per injury model) received subcutaneous PBS of appropriate volume. […]
Following a midline laparotomy the liver was excised and weighed. Liver weight to body weight ratio was calculated and expressed as a percentage. Livers were fixed in 4% formalin overnight then transferred to 70% ethanol. Livers were then embedded in paraffin blocks and 4 μm sections cut. Immunohistochemistry for Ki67 (a marker of cellular proliferation expressed throughout the cell cycle) was performed following heat mediated antigen retrieval in Tris/EDTA solution at pH9. Hepatocyte proliferation was quantified by counting ki67 positive hepatocytes in 20 high powered fields (400×) per animal and the mean calculated. […]

[2] = test system: male C57BI6 mice; experiment: Paracetamol intoxication in mice; type: in vivo, mouse; details: CSF1 receptor blockade, 180 mg/kg via gavage; Day 3 post injury
Experimental: Forty-eight male C57BI6 mice aged 10-12 weeks underwent either 2/3 partial hepatectomy, paracetamol intoxication or chronic liver injury plus 2/3 partial hepatectomy. 2/3 partial hepatectomy was performed by ligating the left lobe and left and right median lobes. Paracetamol intoxication was performed by intraperitoneal administration of 350 mg/kg paracetamol dissolved in phosphate buffered saline (PBS). Chronic liver injury plus 2/3 partial hepatectomy was performed by eight weeks intraperitoneal carbon tetrachloride administration 1 mcl/g twice weekly dissolved in olive oil followed by ⅔ partial hepatectomy as described above. […] Control mice (n=8 per injury model) received subcutaneous PBS of appropriate volume. All mice were culled on day 4 following injury (partial hepatectomy or paracetamol intoxication).
Following a midline laparotomy the liver was excised and weighed. Liver weight to body weight ratio was calculated and expressed as a percentage. Livers were fixed in 4% formalin overnight then transferred to 70% ethanol. Livers were then embedded in paraffin blocks and 4 μm sections cut. Immunohistochemistry for Ki67 (a marker of cellular proliferation expressed throughout the cell cycle) was performed following heat mediated antigen retrieval in Tris/EDTA solution at pH9. Hepatocyte proliferation was quantified by counting ki67 positive hepatocytes in 20 high powered fields (400×) per animal and the mean calculated.
Hepatic CSF1 gene expression was assessed in mice following paracetamol intoxication (350 mg/kg paracetamol IP following overnight fast) at time points up to 4 days, showing peak CSF1 gene expression at day 2 (FIG. 14A).

[3] = test system: csf1r-EGFP (MacGreen) mice; experiment: Fc-CSF-1 injected subcutaneously into csf1r-EGFP mice on 4 days, sacrificed on the 5th day; type: in vivo, mouse; details: 1 mg/kg
Experimental: Mice were injected with Fc-CSF-1 subcutaneously on each of 4 days and sacrificed on the 5th day. The mice were csf1r-EGFP (MacGreen) mice on the C57BI/6 background. Tissue processing and immunohistochemistry were carried out as described in (Alikhan et al Am J. Pathol. 179, 1243-1256, 2011 and Macdonald et al Blood. 116, 3955-3963, 2010). A comparison of the effect of recombinant pig CSF-1 or Fc-CSF-1 on the proliferation of mouse bone marrow cells or the Ba/F3 CS1R reporter cell line using the assay described in Gow et al Cytokine.

[4] = Pig PK (plasma ELISA); type: in vivo; details: weaner pigs; 0.5 mg/kg SC
Experimental: Porcine CSF-1 Fc-fusion plasma levels were detected using an in-house developed conventional sandwich ELISA utilizing commercially available antibodies. Capture antibody was Abcam ab9693 (0.3 μg/mL) and detection antibody was Rabbit anti-pig IgG (Fc) biotinylated Alpha Diagnostic 90440 (1:5000 dilution). Standard protein was generated and purified in-house (lot 2/24/11 JAS). Standards were added to each plate along with the samples resulting in an 11 point standard range of 2700 ng/mL to […]. This allowed for quantitation of each sample to a standard curve on every assay plate. Assay detection was done using Pierce High Sensitivity Streptavidin-HRP (1:10,000 dilution) and TMB Microwell Peroxidase Substrate System solution (KPL).
Weaner age barrows (<14 kg) were assigned to three treatment groups receiving a single intravenous (IV) or subcutaneous (SC) dose as follows. Three pigs received 0.5 mg/kg CSF-1 non-fusion dosed SC. Two pigs received 1.2 mg/kg CSF-1:Fc fusion dosed IV. Two pigs received 1.2 mg/kg CSF-1:Fc dosed SC. One ml plasma samples were obtained via the V. jugularis in EDTA anticoagulant tubes and placed on ice until centrifuged. The plasma was transferred to sterile tubes stored at ≤−10° C. until analysis. Serial plasma samples were obtained from each animal at pre-dose and 5 minutes, 30 minutes, 1 hour, 2 hours, 4 hours, 6 hours, 8, hours, 24 hours, 48 hours, and 72 hours post-dose. CSF-1 and CSF-1:Fc fusion protein levels were quantitated in plasma using ELISA assays.

[5] = day 2 following partial hepatectomy, vs controls

| Molecule | serum ALT (marker of liver injury) ([1]; CSF1 receptor blockade, 180 mg/kg via gavage) | hepatocyte proliferation ([1]; CSF1 receptor blockade, 180 mg/kg via gavage, Day 3) | gene expression of oncostatin M (OSM) [1, 5] | gene expression of pro-regenerative cytokine 116 [1, 5] | urokinase receptor (UR) expression ([1]; following partial hepatectomy, vs controls) | hepatocyte proliferation [2] | liver weight to body weight ratio [2] | serum ALT (marker of liver injury) [2] | total body weight [3] | peak plasma level [4] | time by which completely cleared from plasma [4] [h] |
| --- | --- | --- | --- | --- | --- | --- | --- | --- | --- | --- | --- |
| COc1ccc(COc2ccc(Cc3cnc(N)nc3N)cc2OC)cc1 [GW2580, reference compound] | raised | markedly impaired | significant reduction | significant reduction | reduction | impaired | reduced | raised | – | – | – |
| CSF-1: unmodified recombinant pig CSF-1 protein, non-fusion comparator (protein) SENCSHMIGDGHLKVLQQLIDSQMETSCQIAFEFVDQEQLTDPVCYLKKAFLQVQDILDETMRFRDNTPNANVIVQLQELSLRLNSCFTKDYEEQDKACVRTFYETPLQLLEKIKNVFNETKNLLKKDWNIFSKNCNNSFAKCSSQDVVTKPDCN | – | – | – | – | – | – | – | – | no effect | around 100 ng/ml | ≤ 20 |
